Data reported in patent publication EP2918282A1, “Pharmaceutical composition for the treatment of virus diseases, such as flu” (OOO "CytoNIR", priority 2014, dated 2015).

Tested on: Grippevirus A/Vladivostok/2/09 (H1N1)
Assay: Survival of mice infected with a lethal dose of influenza virus, peroral treatment for 5 days
Format: in vivo, Mäuse
Settings: for To-des-fälle / Überleben-de Mäuse / MLD, Tage (mittlere Lebensdauer innerhalb der Beobachtungsfrist) / Sterblichkeit % / MLD-Erhöhung, Tage / Schutzkennzahl, %: Tamiflu 30 mg/kg; for MLD-Erhöhung, Tage / Schutzkennzahl, %: versus Placebo
Excerpt: Die Wirksamkeit des Mittels wurde an einem Modell der Überlebensfähigkeit von angesteckten Versuchstieren geprüft. Die Versuchstiere wurden mit einer tödlichen Dosis des Grippevirus A/Vladivostok/2/09 (H1N1) angesteckt. Während der Forschung wurde das erfindungsgemäße Mittel 5 Tage lang peroral verabreicht.
Als Versuchstiere wurden weiße männliche Auszucht-Mäuse mit einem Körpergewicht von 16 - 18 g aus der Aufzuchtstation Rappolovo der Russischen Akademie der medizinischen Wissenschaften verwendet. Vor der Prüfung wurden die Versuchstiere einer Quarantäne in einem Vivarium im Laufe einer Woche unterzogen. Die Versuchstiere wurden unter genormten Klima-Bedingungen mit ausgewogener Fütterung gehalten. Jede Gruppe enthielt je 30 Versuchstiere.
Um eine versuchsmäßige Grippe-Infektion zu simulieren, wurde ein bestimmter Virusstamm eingesetzt. Die Versuchstiere wurden mit dem A/Vladivostok/2/09 (H1N1)-Virus in Mengen von 1 und 10 DL50 intranasal angesteckt.
Die Behandlung der angesteckten Mäuse wurde 24 Stunden nach der Ansteckung begonnen. Die Präparate wurden intragastrisch mittels einer Sonde verabreicht. Bei diesen Präparaten handelte es sich um eine Lösung in einer physiologischen Kochsalzlösung. Die Dosis des Arzneimittels wurde pro ein kg des Körpergewichts des Tieres berechnet. Die Behandlung wurde im Laufe von 5 Tagen vorgenommen. Die Wirksamkeit des Mittels wurde anhand der Überlebensraten der Tiere am 21. Tag nach der Ansteckung beurteilt.
Die erste Gruppe der Versuchstiere erhielt eine Lösung von Glutamyltryptophan und Natriumsalz der Glycyrrhizinsäure (nachfolgend GTGS); die zweite Gruppe der Tiere erhielt ein Präparat Tamiflu (Handelsnahme des Präparats Oseltamyvir) in der Dosis von 30 mg/kg; die dritte Gruppe der Tiere erhielt eine physiologische Kochsalzlösung (Placebo).

[1] = Virus-Dosis 1 (DL50), 15 animals per group, peroral day 1 to 5 after infection
[2] = Virus-Dosis 1 (DL50), peroral day 1 to 5 after infection
[3] = Virus-Dosis 10 (DL50), 15 animals per group, peroral day 1 to 5 after infection
[4] = Virus-Dosis 10 (DL50), peroral day 1 to 5 after infection
[5] = Virus-Dosis Gesamtdosis (both virus doses pooled), 30 animals, peroral day 1 to 5 after infection
[6] = Virus-Dosis Gesamtdosis (both virus doses pooled), peroral day 1 to 5 after infection
[7] = Virus-Dosis Gesamtdosis (both virus doses pooled)

CCOC(=O)C1=C[C@@H](OC(CC)CC)[C@H](NC(C)=O)[C@@H](N)C1 [Tamiflu, Oseltamyvir]
To-des-fälle [1]: 6
Überleben-de Mäuse [1]: 9
MLD, Tage (mittlere Lebensdauer innerhalb der Beobachtungsfrist) [2]: 11,7 Tage
Sterblichkeit % [2]: 40,0%
MLD-Erhöhung, Tage [2]: 1,1 Tage
Schutzkennzahl, % [2]: 25,0%
To-des-fälle [3]: 12
Überleben-de Mäuse [3]: 3
MLD, Tage (mittlere Lebensdauer innerhalb der Beobachtungsfrist) [4]: 9,0 Tage
Sterblichkeit % [4]: 80,0%
MLD-Erhöhung, Tage [4]: 1,9 Tage
Schutzkennzahl, % [4]: 14,3%
To-des-fälle [5]: 18
Überleben-de Mäuse [5]: 12
MLD, Tage (mittlere Lebensdauer innerhalb der Beobachtungsfrist) [6]: 10,4 Tage
Sterblichkeit % [6]: 60,0%
MLD-Erhöhung, Tage [7]: 1,5 Tage
Schutzkennzahl, % [7]: 18,2%
Todesfälle (virus dose 10 DL50, 30 mg/kg): 80%
